Measured values: US11471494B2, “Microorganisms programmed to produce immune modulators and anti-cancer therapeutics in tumor cells” (Synlogic Operating Company, Inc., priority 2017, dated 2022)

Columns and labels:
[1] = tested on: kynurenine; assay: Tumoral kynurenine levels, CT26 murine tumor model (Example 13); format: in vivo, mouse; details: Study 2; INCB024360 oral gavage twice daily
[2] = target: T1, CTLA-4 (Oryctolagus cuniculus, UniProt P42072); details: CTLA-4 from rabbits; cited from earlier work
T1 sequence (P42072 36-223): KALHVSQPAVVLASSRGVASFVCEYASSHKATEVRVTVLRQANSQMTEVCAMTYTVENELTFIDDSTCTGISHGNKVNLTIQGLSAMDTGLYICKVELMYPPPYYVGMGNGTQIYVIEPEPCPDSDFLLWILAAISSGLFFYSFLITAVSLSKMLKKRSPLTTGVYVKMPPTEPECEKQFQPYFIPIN

[3] = target: CTLA-4 (Mus musculus, UniProt P09793); details: CTLA-4 from mice; cited from earlier work
[4] = target: T2, CTLA-4 (Rattus norvegicus, UniProt Q62859); details: CTLA-4 from rats; cited from earlier work
T2 sequence (Q62859 1-223): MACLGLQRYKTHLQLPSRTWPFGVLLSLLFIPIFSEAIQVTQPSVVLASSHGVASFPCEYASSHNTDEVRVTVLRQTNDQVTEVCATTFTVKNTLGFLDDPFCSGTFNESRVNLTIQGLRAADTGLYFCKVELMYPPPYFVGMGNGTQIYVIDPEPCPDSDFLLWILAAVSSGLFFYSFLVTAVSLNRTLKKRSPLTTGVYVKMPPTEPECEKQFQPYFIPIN

[5] = tested on: NK cells, γδT cells and CD8+ T cells; details: upon treatment; cited from earlier work

Sequence of CTLA-4 (Mus musculus, UniProt P09793) (P09793 36-223): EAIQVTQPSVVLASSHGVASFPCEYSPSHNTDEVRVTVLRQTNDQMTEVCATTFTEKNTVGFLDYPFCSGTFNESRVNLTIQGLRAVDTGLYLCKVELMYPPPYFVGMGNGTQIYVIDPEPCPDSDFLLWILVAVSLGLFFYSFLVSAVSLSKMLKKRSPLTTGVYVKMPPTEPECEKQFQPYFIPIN

For `NS(=O)(=O)NCCNc1nonc1C(=NO)Nc1ccc(F)c(Br)c1` [INCB024360], the “Intratumoral kynurenine levels, SYN2028 compared with INCB024360” value [1] was “similar”.

In the case of Ipilimumab, the “cross-reactivity with or binding to CTLA-4” value (from here on “cross-reactivity”) [2] is given as “did not show cross-reactivity with or binding to”, the “cross-reactivity” value [3] is given as “did not show cross-reactivity with or binding to” and the “cross-reactivity” value [4] is given as “did not show cross-reactivity with or binding to”.

In the case of “recombinant human IL-15: recombinant human IL-15 of a first-in-human clinical trial”, the “expansion of NK cells” value [5] is listed as 10 fold and the “proliferation of γδT cells and CD8+ T cells” value [5] is listed as “significantly increased”.
